Measured values published in article PMC10460844, “Real‐Time Monitoring of Multitarget Antimicrobial Mechanisms of Peptoids Using Label‐Free Imaging with Optical Diffraction Tomography” (Advanced Science, 2023).
Converted amounts (≈) assume the structure as drawn. Counter-ions that a name gives are not always drawn. Like-named read-outs stand apart in the source and are kept apart here. Square brackets hold non-standard residues; d marks the D form. Peptide text beside a SMILES is read from it. Gly(N(CH2)2(3-indolyl)) = O=C(O)CNCCc1c[nH]c2ccccc12; Nspe = C[C@H](NCC(=O)O)c1ccccc1; Nlys = NCCCCNCC(=O)O

Columns and labels:
[1] = Analytical reversed-phase HPLC elution (hydrophobicity); format: physicochemical; conditions: analytical RP-HPLC, 1 mL/min, UV 220 nm; for HPLC elution: Table S1, SunFire C18, water/ACN + 0.1% TFA, 5 to 100% B linear over 30 min, approximate comparison of hydrophobicity
Summary of the method: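 Retention time (tR) reflects hydrophobicity, with detection at 220 nm. Elution used a 5–100% acetonitrile linear gradient over 30 min after a 2 min hold at 5%, then 5 min at 100%, with both phases containing 0.1% TFA. Column was an analytical C18 (4.6 × 250 mm, 5 μm) run at 1 mL/min.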

E. coli ATCC 25922 = format: cell-based, Escherichia coli
Method: (§1) The antibacterial activity of the peptoids was evaluated against gram‐positive (Staphylococcus aureus, ATCC 25 923) and gram‐negative (Escherichia coli, ATCC 25 922) bacteria. […] The MIC of each peptoid was determined using a broth dilution assay. For each assay, the primary culture of either S. aureus or E. coli was grown overnight in cation‐adjusted Mueller Hinton broth 2 (MHB2) media at 37 °C with shaking. A secondary culture was prepared the next day, grown for 3–4 h, and then diluted in MHB2 media with a final concentration of 0.001% acetic acid and 0.02% bovine serum albumin to obtain a calculated optical density (OD) of 0.001. This corresponded to ≈2–5 × 10^5 colony‐forming units (CFU mL^−1) of bacteria. Using 96‐well polypropylene plates (Eppendorf, Hamburg, Germany), 100 µL of 2–5 × 10^5 CFU mL^−1 bacteria were added in triplicate for each peptoid. Each peptoid was assayed at six different concentrations in two‐fold serial dilutions. The maximum peptoid concentration was 25 µM. […] The MIC value determination was performed in triplicate. The MIC was defined as the lowest peptoid concentration that prevented turbidity during visual inspection.

rat erythrocytes = test: Hemolysis assay; format: cell-based
Summary of the method: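 Washed Sprague-Dawley rat erythrocytes (10% suspension in PBS pH 7.4) mixed with peptoids (0–100 µM), 60 min at 37 °C; supernatant A540 expressed as % of 1% Triton X-100 lysis. HC10/HC50 are concentrations giving 10%/50% hemolysis; Hmax is hemolysis at 100 µM.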

S. aureus ATCC 25923 = format: cell-based, Staphylococcus aureus
Method: as §1

[2] = Table S2, broth dilution, MHB2, 37 °C 24 h, max 25 µM, mean of triplicate

HPLC elution [1] [% MeCN]	HPLC elution (%ACN) ([1]; Table 1, SunFire C18 […] 250 mm, water/ACN + 0.1% TFA, 5% B 2 min then linear to 100% B over 30 min, used as measure of hydrophobicity)	MIC S. aureus ATCC25923 (S. aureus ATCC 25923; [2]) [µM]	MIC E. coli ATCC25922 (E. coli ATCC 25922; [2]) [µM]	Compound	MIC E. coli ATCC25922 (E. coli ATCC 25922; ATCC 25922) [µM]	HC10 (rat erythrocytes; pH 7.4) [µM]	HC50 (rat erythrocytes; pH 7.4) [µM]	HC10 (rat erythrocytes; red cells of rat) [µM]	HC50 (rat erythrocytes; red cells of rat) [µM]	MIC S. aureus ATCC25923 (S. aureus ATCC 25923; ATCC 25923) [µM]	Hmax (100 µM) (rat erythrocytes) [%]	H max (100 µM) (rat erythrocytes) [%]
53.7				C[C@@H](c1ccccc1)N(CC(N)=O)C(=O)CN(C(=O)CN(CCCCN)C(=O)CN(C(=O)CN(CCc1c[nH]c2ccccc12)C(=O)CN(CCCCN)C(=O)CN(CCc1c[nH]c2ccccc12)C(=O)CN(C(=O)CN(CCCCN)C(=O)CN(C(=O)CN(C(=O)CNCCCCN)[C@@H](C)c1ccccc1)[C@@H](C)c1ccccc1)[C@@H](C)c1ccccc1)[C@@H](C)c1ccccc1)[C@@H](C)c1ccccc1 [peptoid 15]	3.1 (≈ 5.88 µg/mL)	28.1	60.9	20.5	89.2			
				C[C@@H](c1ccccc1)N(CC(=O)N(CCCCN)CC(=O)N(CC(=O)N(CC(=O)N(CCCCN)CC(=O)N(CC(=O)N(CC(=O)N(CCCCN)CC(N)=O)[C@@H](C)c1ccccc1)[C@@H](C)c1ccccc1)[C@@H](C)c1ccccc1)[C@@H](C)c1ccccc1)C(=O)CN(C(=O)CN(CCCCN)C(=O)CN(CCc1c[nH]c2ccccc12)C(=O)CNCCc1c[nH]c2ccccc12)[C@@H](C)c1ccccc1 [37-AcOH] (H-[Gly(N(CH2)2(3-indolyl))][Gly(N(CH2)2(3-indolyl))][Nlys][Nspe][Nspe][Nlys][Nspe][Nspe][Nlys][Nspe][Nspe][Nlys]-NH2)	6.3 (≈ 12 µg/mL)			12.5	26.0	1.6 (≈ 3.04 µg/mL)	98.9±8.0	
				C[C@@H](c1ccccc1)N(CC(=O)N(CCCCN)CC(=O)N(CC(=O)N(CC(=O)N(CCCCN)CC(=O)N(CC(=O)N(CC(=O)N(CCCCN)CC(=O)N(CCc1c[nH]c2ccccc12)CC(=O)N(CCc1c[nH]c2ccccc12)CC(N)=O)[C@@H](C)c1ccccc1)[C@@H](C)c1ccccc1)[C@@H](C)c1ccccc1)[C@@H](C)c1ccccc1)C(=O)CN(C(=O)CNCCCCN)[C@@H](C)c1ccccc1 [11-AcOH] (H-[Nlys][Nspe][Nspe][Nlys][Nspe][Nspe][Nlys][Nspe][Nspe][Nlys][Gly(N(CH2)2(3-indolyl))][Gly(N(CH2)2(3-indolyl))]-NH2)	3.1 (≈ 5.88 µg/mL)			8.7	29.7	1.6 (≈ 3.04 µg/mL)	110.4±0.2	
				C[C@@H](c1ccccc1)N(CC(N)=O)C(=O)CN(C(=O)CN(CCCCN)C(=O)CN(C(=O)CN(CCc1c[nH]c2ccccc12)C(=O)CN(CCCCN)C(=O)CN(CCc1c[nH]c2ccccc12)C(=O)CN(C(=O)CN(CCCCN)C(=O)CN(C(=O)CN(C(=O)CNCCCCN)[C@@H](C)c1ccccc1)[C@@H](C)c1ccccc1)[C@@H](C)c1ccccc1)[C@@H](C)c1ccccc1)[C@@H](C)c1ccccc1 [15-HCl]	6.3			50.4	> 100	3.1	33.4±9.7	
				C[C@@H](c1ccccc1)N(CC(N)=O)C(=O)CN(C(=O)CN(CCCCN)C(=O)CN(C(=O)CN(C(=O)CN(CCCCN)C(=O)CN(C(=O)CN(C(=O)CN(CCCCN)C(=O)CN(CCc1c[nH]c2ccccc12)C(=O)CN(CCc1c[nH]c2ccccc12)C(=O)CNCCCCN)[C@@H](C)c1ccccc1)[C@@H](C)c1ccccc1)[C@@H](C)c1ccccc1)[C@@H](C)c1ccccc1)[C@@H](C)c1ccccc1 [14-HCl]	3.1			19.2	68.2	3.1	75.3±5.0	
	45.7	12.5 (≈ 22.2 µg/mL)		CC[C@H](C)[C@H](N)C(=O)N[C@@H](CC(C)C)C(=O)N[C@@H](CCCNC(=N)N)C(=O)N[C@@H](Cc1c[nH]c2ccccc12)C(=O)N1CCC[C@H]1C(=O)N[C@@H](Cc1c[nH]c2ccccc12)C(=O)N[C@@H](Cc1c[nH]c2ccccc12)C(=O)N1CCC[C@H]1C(=O)N[C@@H](Cc1c[nH]c2ccccc12)C(=O)N[C@@H](CCCNC(=N)N)C(=O)N[C@@H](CCCNC(=N)N)C(=O)N[C@@H](CCCCN)C(N)=O [Omiganan, reference compound] (H-ILRWPWWPWRRK-NH2)		> 100	> 100				0	0
				C[C@@H](c1ccccc1)N(CC(N)=O)C(=O)CN(C(=O)CN(CCCCN)C(=O)CN(C(=O)CN(C(=O)CN(CCCCN)C(=O)CN(C(=O)CN(C(=O)CN(CCCCN)C(=O)CN(CCc1c[nH]c2ccccc12)C(=O)CN(C(=O)CNCCCCN)[C@@H](C)c1ccccc1)[C@@H](C)c1ccccc1)[C@@H](C)c1ccccc1)[C@@H](C)c1ccccc1)[C@@H](C)c1ccccc1)[C@@H](C)c1ccccc1 [10-AcOH]	6.3 (≈ 11.7 µg/mL)			14.1	29.4	1.6 (≈ 2.97 µg/mL)	102.3±11.3	
				C[C@@H](c1ccccc1)N(CC(N)=O)C(=O)CN(C(=O)CN(CCCCN)C(=O)CN(C(=O)CN(C(=O)CN(CCCCN)C(=O)CN(C(=O)CN(C(=O)CN(CCCCN)C(=O)CN(CCc1c[nH]c2ccccc12)C(=O)CN(C(=O)CNCCCCN)[C@@H](C)c1ccccc1)[C@@H](C)c1ccccc1)[C@@H](C)c1ccccc1)[C@@H](C)c1ccccc1)[C@@H](C)c1ccccc1)[C@@H](C)c1ccccc1 [10-HCl]	6.3			15.3	37.8	3.1	81.5±7.4	
54.6			3.1 (≈ 5.76 µg/mL)	C[C@@H](c1ccccc1)N(CC(N)=O)C(=O)CN(C(=O)CN(CCCCN)C(=O)CN(C(=O)CN(C(=O)CN(CCCCN)C(=O)CN(CCc1c[nH]c2ccccc12)C(=O)CN(C(=O)CN(CCCCN)C(=O)CN(C(=O)CN(C(=O)CNCCCCN)[C@@H](C)c1ccccc1)[C@@H](C)c1ccccc1)[C@@H](C)c1ccccc1)[C@@H](C)c1ccccc1)[C@@H](C)c1ccccc1)[C@@H](C)c1ccccc1 [peptoid 9]		10.6	31.9				106.4±0.6	
48.8				C[C@@H](c1ccccc1)N(CC(=O)N(CCCCN)CC(=O)N(CC(=O)N(CC(=O)N(CCCCN)CC(=O)N(CCc1c[nH]c2ccccc12)CC(=O)N(CCc1c[nH]c2ccccc12)CC(N)=O)[C@@H](C)c1ccccc1)[C@@H](C)c1ccccc1)C(=O)CN(CCCCN)C(=O)CN(CCCCN)C(=O)CN(C(=O)CN(C(=O)CNCCCCN)[C@@H](C)c1ccccc1)[C@@H](C)c1ccccc1 [peptoid 30] (H-[Nlys][Nspe][Nspe][Nlys][Nlys][Nspe][Nlys][Nspe][Nspe][Nlys][Gly(N(CH2)2(3-indolyl))][Gly(N(CH2)2(3-indolyl))]-NH2)		> 100	> 100				8.4±0.5	
50.7				C[C@@H](c1ccccc1)N(CC(N)=O)C(=O)CN(C(=O)CN(CCCCN)C(=O)CN(C(=O)CN(C(=O)CN(CCCCN)C(=O)CN(CCc1c[nH]c2ccccc12)C(=O)CN(C(=O)CN(CCCCN)C(=O)CN(C(=O)CN(CCCCN)C(=O)CNCCCCN)[C@@H](C)c1ccccc1)[C@@H](C)c1ccccc1)[C@@H](C)c1ccccc1)[C@@H](C)c1ccccc1)[C@@H](C)c1ccccc1 [peptoid 27]		> 100	> 100				5.9±0.2	
